Patent US20240041042A1, “1-(PYRIDYL)-5-AZINYLPYRAZOLE DERIVATIVES, AND THEIR USE FOR CONTROL OF UNDESIRED PLANT GROWTH” (Bayer Aktiengesellschaft, priority 2020, published 2024)
Where two headings read alike, the source gives them in different places.

Tests used:
Assay type in all cases: in vivo
[1] = tested on: Alopecurus myosuroides (ALOMY); assay: Pre-emergence herbicidal action against ALOMY; conditions: scored visually after about 3 weeks, 100% = plants have died
How it was run: (§1)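 Seeds sown in pots and covered with soil; WP or EC formulations sprayed onto the soil surface at 600 l/ha water with 0.5% additive, at 320 g/ha or lower. Greenhouse growth for about 3 weeks, then visual scoring as % effect against untreated controls (100% = plants dead).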

[2] = tested on: Amaranthus retroflexus (AMARE); assay: Pre-emergence herbicidal action against AMARE; conditions: visual scoring after about 3 weeks vs untreated controls
How it was run: as §1

Avena fatua (AVEFA) [3] = assay: Pre-emergence herbicidal action against AVEFA; conditions: 320 g/ha, visual scoring after about 3 weeks vs untreated controls
How it was run: as §1

[4] = tested on: Digitaria sanguinalis (DIGSA); assay: Pre-emergence herbicidal action against DIGSA
Text: Seeds of monocotyledonous and dicotyledonous weed plants and crop plants are placed in plastic or organic planting pots and covered with soil. The compounds of the invention, formulated in the form of wettable powders (WP) or as emulsion concentrates (EC), are then applied to the surface of the covering soil as aqueous suspension or emulsion with addition of 0.5% additive at a water application rate equivalent to 600 l/ha. After the treatment, the pots are placed in a greenhouse and kept under good growth conditions for the trial plants. After about 3 weeks, the effect of the preparations is scored visually in comparison with untreated controls as percentages. For example, 100% activity=the plants have died, 0% activity=like control plants.
Tables A1 to A13 below show the effects of selected compounds of the general formula (I) on various harmful plants and at an application rate corresponding to 320 g/ha or lower, which were obtained by the experimental procedure mentioned above. The appendices “a”, “b” and “c” give differentiation by dosage used with otherwise the same harmful plants tested.

[5] = tested on: Echinochloa crus-galli (ECHCG); assay: Pre-emergence herbicidal action against ECHCG; conditions: dosage 320 g/ha
How it was run: as §1

Lolium rigidum (LOLRI) [6] = assay: Pre-emergence herbicidal action against LOLRI
How it was run: as §1

[7] = tested on: Matricaria inodora (MATIN); assay: Pre-emergence herbicidal action against MATIN; conditions: dosage 320 g/ha
How it was run: as §1

[8] = tested on: Pharbitis purpurea (PHBPU); assay: Pre-emergence herbicidal action against PHBPU; conditions: dosage 320 g/ha
How it was run: as §1

[9] = tested on: Polygonum convolvulus (POLCO); assay: Pre-emergence herbicidal action against POLCO
How it was run: as §1

Setaria viridis (SETVI) [10] = assay: Pre-emergence herbicidal action against SETVI
How it was run: as §1

[11] = tested on: Verconica persica (VERPE); assay: Pre-emergence herbicidal action against VERPE; conditions: dosage 320 g/ha
How it was run: as §1

Viola tricolor (VIOTR) [12] = assay: Pre-emergence herbicidal action against VIOTR
How it was run: as §1

[13] = tested on: Abutilon theophrasti (ABUTH); assay: Post-emergence herbicidal action against ABUTH; conditions: visual rating about 3 weeks after treatment vs untreated controls (100% = plants have died, 0% = like control plants)
How it was run: (§2)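 Values are percent visual activity (0% like control, 100% plants dead) after about 3 weeks in the greenhouse. Treatment: post-emergence spray at one-leaf stage, 600 l/ha spray volume, 0.5% additive, doses 320 g/ha or lower.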

[14] = tested on: Alopecurus myosuroides (ALOMY); assay: Post-emergence herbicidal action against ALOMY; conditions: visual rating about 3 weeks after treatment vs untreated controls (100% = plants have died, 0% = like control plants)
How it was run: as §2

[15] = tested on: Amaranthus retroflexus (AMARE); assay: Post-emergence herbicidal action against AMARE
How it was run: as §2

[16] = tested on: Digitaria sanguinalis (DIGSA); assay: Post-emergence herbicidal action against DIGSA; conditions: visual rating about 3 weeks after treatment
How it was run: as §2

[17] = tested on: Echinochloa crus-galli (ECHCG); assay: Post-emergence herbicidal action against ECHCG
How it was run: as §2

[18] = tested on: Matricaria inodora (MATIN); assay: Post-emergence herbicidal action against MATIN
How it was run: as §2

[19] = tested on: Pharbitis purpurea (PHBPU); assay: Post-emergence herbicidal action against PHBPU
How it was run: as §2

Setaria viridis (SETVI) [20] = assay: Post-emergence herbicidal action against SETVI
How it was run: as §2

[21] = tested on: Verconica persica (VERPE); assay: Post-emergence herbicidal action against VERPE
How it was run: as §2

Oryza sativa (ORYSA) = conditions: crop plant compatibility
How it was run: (§3)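 Foliar application at the one-leaf stage: WP/EC formulation, 0.5% additive, 600 l/ha water. Greenhouse-grown in sandy loam. Endpoint is visual % injury relative to untreated controls at about 3 weeks.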

Avena fatua (AVEFA) [22] = assay: Post-emergence herbicidal action against AVEFA; conditions: visual rating about 3 weeks after treatment
How it was run: as §2

Lolium rigidum (LOLRI) [23] = assay: Post-emergence herbicidal action against LOLRI
How it was run: as §2

[24] = tested on: Polygonum convolvulus (POLCO); assay: Post-emergence herbicidal action against POLCO; conditions: dosage 320 g/ha
How it was run: as §2

Viola tricolor (VIOTR) [25] = assay: Post-emergence herbicidal action against VIOTR
How it was run: as §2

Zea mays (ZEAMX) = conditions: crop plant compatibility, 80 g/ha, effect vs untreated controls
How it was run: as §3

[26] = 80 g/ha, visual scoring after about 3 weeks vs untreated controls
[27] = 80 g/ha, effect in comparison to untreated controls

Row | SMILES | Pre-emergence action against ALOMY ([1]; 320 g/ha) [%] | Pre-emergence action against AMARE in % ([2]; 320 g/ha) [%] | Pre-emergence action against AVEFA in % (Avena fatua (AVEFA) [3]) [%] | Pre-emergence action against DIGSA in % [4, 26] [%] | Pre-emergence action against DIGSA in % ([4]; dosage 320 g/ha) [%] | Pre-emergence action against ECHCG in % [5] [%] | Pre-emergence action against LOLRI in % (Lolium rigidum (LOLRI) [6]; dosage 80 g/ha) [%] | Pre-emergence action against LOLRI in % (Lolium rigidum (LOLRI) [6]; dosage 320 g/ha) [%] | Pre-emergence action against MATIN in % [7] [%] | Pre-emergence action against PHBPU in % [8] [%] | Pre-emergence action against SETVI in % (Setaria viridis (SETVI) [10]; dosage 80 g/ha) [%] | Pre-emergence action against SETVI in % (Setaria viridis (SETVI) [10]; dosage 320 g/ha) [%] | Pre-emergence action against VERPE in % [11] [%] | Pre-emergence action against VIOTR in % (Viola tricolor (VIOTR) [12]; 320 g/ha, Viola tricolor) [%] | Post-emergence action against ALOMY in % ([14]; 80 g/ha) [%] | Post-emergence action against DIGSA in % ([16]; 80 g/ha) [%] | Post-emergence action against ECHCG in % ([17]; dosage 80 g/ha) [%] | Post-emergence action against PHBPU in % ([19]; dosage 80 g/ha) [%] | Post-emergence action against SETVI in % (Setaria viridis (SETVI) [20]; dosage 80 g/ha) [%] | Post-emergence action against VERPE in % ([21]; dosage 80 g/ha) [%] | also measured
1 | O=C(O)CNC(=O)COc1nn(-c2ccccn2)c(-c2ccc(F)nc2)c1Cl [Example I-118] | 100 | 100 | 90 | 100 | 100 | 100 | 90 | 100 | 90 | 90 | 90 | 100 | 90 | 100 | 100 | 80 | 80 | 80 | 80 | 90 | Pre-emergence action against ALOMY ([1]; 80 g/ha): 90%; Pre-emergence action against AMARE in % ([2]; 80 g/ha): 90%; Pre-emergence action against POLCO in % ([9]; dosage 80 g/ha): 80%; Pre-emergence action against POLCO in % ([9]; dosage 320 g/ha): 90%; Post-emergence action against ABUTH in % ([13]; 80 g/ha): 80%; Post-emergence action against AMARE in % ([15]; 80 g/ha, visual rating about 3 weeks after treatment vs untreated controls (100% = plants have died, 0% = like control plants)): 90%; Post-emergence action against MATIN in % ([18]; dosage 80 g/ha): 80%; Post-emergence action against ORYSA in % (Oryza sativa (ORYSA); 20 g/ha, effect vs untreated controls): 0%; Post-emergence action against ORYSA in % (Oryza sativa (ORYSA); [27]): 0%
2 | CCOC(=O)COc1nn(-c2nc(F)ccc2F)c(-c2ccc(F)nc2)c1C1CC1 [Example I-348] | 80 | 90 | 90 | 90 | 100 | 90 | 90 | 100 | 90 | 90 | 80 | 100 | 90 | 90 | 80 | 80 | 90 | 80 | 80 | 80 | Pre-emergence action against VIOTR in % (Viola tricolor (VIOTR) [12]; dosage 80 g/ha): 80%; Post-emergence action against ABUTH in % ([13]; 320 g/ha): 80%; Post-emergence action against ALOMY in % ([14]; 320 g/ha): 90%; Post-emergence action against AMARE in % ([15]; 320 g/ha, visual rating about 3 weeks after treatment): 80%; Post-emergence action against AVEFA in % (Avena fatua (AVEFA) [22]; 80 g/ha): 80%; Post-emergence action against AVEFA in % (Avena fatua (AVEFA) [22]; 320 g/ha): 80%; Post-emergence action against DIGSA in % ([16]; 320 g/ha): 90%; Post-emergence action against ECHCG in % ([17]; dosage 320 g/ha): 90%; Post-emergence action against LOLRI in % (Lolium rigidum (LOLRI) [23]; dosage 80 g/ha): 80%; Post-emergence action against LOLRI in % (Lolium rigidum (LOLRI) [23]; dosage 320 g/ha): 80%; Post-emergence action against MATIN in % ([18]; dosage 320 g/ha): 80%; Post-emergence action against PHBPU in % ([19]; dosage 320 g/ha): 80%; Post-emergence action against POLCO in % [24]: 80%; Post-emergence action against SETVI in % (Setaria viridis (SETVI) [20]; dosage 320 g/ha): 90%; Post-emergence action against VERPE in % ([21]; 320 g/ha, VERPE): 80%; Post-emergence action against VIOTR in % (Viola tricolor (VIOTR) [25]; 80 g/ha): 80%; Post-emergence action against VIOTR in % (Viola tricolor (VIOTR) [25]; 320 g/ha): 80%; Post-emergence action against ORYSA in % (Oryza sativa (ORYSA); [27]): 0%; Post-emergence action against ZEAMX in % (Zea mays (ZEAMX)): 20%
